The results in this text go back to ChEMBL document CHEMBL1641593, “Benzothieno[3,2-b]quinolinium and 3-(phenylthio)quinolinium compounds: Synthesis and evaluation against opportunistic fungal pathogens” (Bioorg Med Chem, 2011).

Assay [1] relates to Cryptococcus neoformans. In words: Antifungal activity against Cryptococcus neoformans ATCC 90113 by CLSI method. It is filed as functional, organism-based.
Assay [2] concerns Candida albicans. In words: Antifungal activity against Candida albicans ATCC 90028 by CLSI method. Format: functional, organism-based.
The test system of assay [3] is Aspergillus fumigatus. In words: Antifungal activity against Aspergillus fumigatus ATCC 90906 by CLSI method. Format: functional, organism-based.
The next assay has as its system Vero. As to the kind of experiment: Cytotoxicity against african green monkey Vero cells after 48 hrs by neutral red assay. Format: cell-based. Conditions: Chlorocebus sabaeus.
The test system of assay [4] is Cryptococcus neoformans. As to the kind of experiment: Antifungal activity against Cryptococcus neoformans ATCC 90113 at 20 ug/ml by CLSI method. Format: functional, organism-based.
The test system of assay [5] is Candida albicans. As to the kind of experiment: Antifungal activity against Candida albicans ATCC 90028 at 20 ug/ml by CLSI method. It is filed as functional, organism-based.
For assay [6], the system named is Aspergillus fumigatus. In words: Antifungal activity against Aspergillus fumigatus ATCC 90906 at 20 ug/ml by CLSI method. Format: functional, organism-based.
Another assay concerns Pichia kudriavzevii. In words: Antifungal activity against Candida krusei ATCC 6258 by CLSI method. It is filed as functional, organism-based.
Where [7] appears, read: Candida albicans, ATCC 90028, read-out: MFC.

SMILES strings stand for the structures. ≈ marks a conversion by molar mass, not a printed value. Calls of active or inactive are those of the source. The rule behind the calls is not given here.

Turning to `C[n+]1c2ccc(Cl)cc2cc2sc3ccccc3c21.[I-]`, the IC50 (as a rule, the concentration that gives 50% inhibition) with Cryptococcus neoformans [1] is 15 µg/mL; in the assay with Candida albicans [2] (Candida albicans, ATCC 90028), 2 µg/mL; in the assay with Vero, over 23.8 µg/mL. Moreover, the MIC (usually the least concentration at which growth counts as inhibited) was over 20 µg/mL in the assay on Cryptococcus neoformans [1]; over 20 µg/mL in the assay on Candida albicans [2] (Candida albicans, ATCC 90028); 2.5 µg/mL with Aspergillus fumigatus [3].

Consider `COc1cccc2c1cc1sc3ccccc3c1[n+]2C`, for which the outcome in the assay on Cryptococcus neoformans [4] was inactive.

As for `C[n+]1c2cccc(Cl)c2cc2sc3ccccc3c21.O=S(=O)([O-])C(F)(F)F`, the outcome in the assay on Cryptococcus neoformans [4] was inactive. Besides, the result in the assay on Candida albicans [5] was inactive. Further, in the assay with Aspergillus fumigatus [3], half-maximal inhibition (IC50) was put at 3 µg/mL and the MIC was determined as 10 µg/mL.

Regarding `C[n+]1c2ccccc2cc2sc3ccccc3c21.O=S(=O)([O-])C(F)(F)F`, the IC50 with Cryptococcus neoformans [1] was over 15 µg/mL; with Candida albicans [2] (Candida albicans, ATCC 90028), 10 µg/mL; with Vero it was over 23.8 µg/mL. Also, the MIC in the assay with Cryptococcus neoformans [1] is over 20 µg/mL; with Candida albicans [2] (Candida albicans, ATCC 90028), over 20 µg/mL; against Aspergillus fumigatus [3], over 20 µg/mL.

Take `C[n+]1c2cc(Cl)ccc2cc2sc3ccccc3c21.O=S(=O)([O-])C(F)(F)F`: the outcome with Candida albicans [5] and in the assay on Aspergillus fumigatus [6] was inactive. Also, the figures for the half-inhibitory concentration (IC50) with Cryptococcus neoformans [1] and with Vero were 10 µg/mL and over 10 µg/mL, respectively. In the assay on Cryptococcus neoformans [1], the MIC is over 20 µg/mL.

In the case of `[I-].c1ccc(CCCCC[n+]2cc(Sc3ccccc3)cc3ccccc32)cc1`, the IC50 with Cryptococcus neoformans [1] is 1.5 µg/mL; with Candida albicans [2] (Candida albicans, ATCC 90028) it was 5.5 µg/mL; in the assay with Pichia kudriavzevii, 1.5 µg/mL. In addition, the minimal fungicidal concentration (MFC) (in general, the lowest tested concentration that kills the fungus rather than only halting it) in the assay on Cryptococcus neoformans [1] was 10 µg/mL; against Candida albicans [2], 20 µg/mL; in the assay with Candida albicans [2] (setting [7]) it was over 20 µg/mL; in the assay with Pichia kudriavzevii, 20 µg/mL; against Aspergillus fumigatus [3], over 20 µg/mL. Further, the MIC against Cryptococcus neoformans [1] is 5 µg/mL; against Candida albicans [2] (Candida albicans, ATCC 90028), 10 µg/mL; in the assay on Pichia kudriavzevii it was 5 µg/mL; against Aspergillus fumigatus [3] it was 1.3 µg/mL.

On to `COc1cccc2c1cc1sc3ccccc3c1[n+]2C.[I-]`, for which, in the assay on Candida albicans [2] (Candida albicans, ATCC 90028), half-maximal inhibition (IC50) required 15 µg/mL and the MIC was over 20 µg/mL. Further, in the assay with Aspergillus fumigatus [3], the half-maximal inhibitory concentration (IC50) stood at 1.5 µg/mL and the MIC was determined as 2.5 µg/mL.

As to `COc1ccc2c(c1)cc1sc3ccccc3c1[n+]2C.[I-]`, the MIC in the assay with Cryptococcus neoformans [1] was 8 µg/mL; in the assay on Candida albicans [2] (Candida albicans, ATCC 90028), over 20 µg/mL. Further, the IC50 in the assay with Candida albicans [2] (Candida albicans, ATCC 90028) was over 20 µg/mL; in the assay on Aspergillus fumigatus [3], 20 µg/mL; in the assay on Vero, over 23.8 µg/mL.

`C[C@@H]1[C@H](O)[C@@H](C)/C=C/C=C/C=C/C=C/C=C/C=C/C=C/[C@H](O[C@@H]2O[C@H](C)[C@@H](O)[C@H](N)[C@@H]2O)C[C@@H]2O[C@](O)(C[C@@H](O)C[C@@H](O)[C@H](O)CC[C@@H](O)C[C@@H](O)CC(=O)O[C@H]1C)C[C@H](O)[C@H]2C(=O)O` [AMPHOTERICIN B]: the concentration for half-maximal inhibition (IC50) in the assay on Cryptococcus neoformans [1] and with Aspergillus fumigatus [3] was 1.5 µg/mL (≈ 1.62 µM) throughout. Also, the MIC was 2.5 µg/mL (≈ 2.71 µM) in the assay on Cryptococcus neoformans [1]; 0.6 µg/mL (≈ 0.649 µM) against Candida albicans [2] (Candida albicans, ATCC 90028); 2.5 µg/mL (≈ 2.71 µM) in the assay on Aspergillus fumigatus [3].

`C[n+]1c2ccccc2cc2sc3c(Cl)cccc3c21.[I-]`: the IC50 with Cryptococcus neoformans [1] is 15 µg/mL; with Candida albicans [2] (Candida albicans, ATCC 90028), over 20 µg/mL; in the assay with Aspergillus fumigatus [3], 6.5 µg/mL. The minimum inhibitory concentration (MIC) against Cryptococcus neoformans [1] was over 20 µg/mL; with Candida albicans [2] (Candida albicans, ATCC 90028) it was over 20 µg/mL; in the assay with Aspergillus fumigatus [3] it was 10 µg/mL.

Take `C[n+]1cc(Sc2ccccc2)cc2ccccc21.[I-]`: the half-maximal inhibitory concentration (IC50) was 15 µg/mL in the assay on Cryptococcus neoformans [1] and 6 µg/mL in the assay with Candida albicans [2] (Candida albicans, ATCC 90028). The MFC against Cryptococcus neoformans [1] was over 20 µg/mL; in the assay with Candida albicans [2] (setting [7]) it was over 20 µg/mL; with Aspergillus fumigatus [3] it was 20 µg/mL. The minimum inhibitory concentration (MIC) in the assay on Cryptococcus neoformans [1] was 20 µg/mL; against Candida albicans [2] (Candida albicans, ATCC 90028), 20 µg/mL; in the assay on Aspergillus fumigatus [3], over 2.5 µg/mL.

For `C[n+]1c2ccccc2cc2sc3ccc(Cl)cc3c21.[I-]`, the result in the assay on Cryptococcus neoformans [4] and with Aspergillus fumigatus [6] was inactive. Moreover, the IC50 is 20 µg/mL in the assay with Candida albicans [2] (Candida albicans, ATCC 90028) and over 10 µg/mL in the assay with Vero. Also, the MIC in the assay on Candida albicans [2] (Candida albicans, ATCC 90028) is over 20 µg/mL.

In the case of `C[n+]1c2cccc(O)c2cc2sc3ccccc3c21`, the outcome with Cryptococcus neoformans [4], in the assay on Candida albicans [5] and in the assay with Aspergillus fumigatus [6] was inactive.

`C[n+]1c2ccccc2cc2sc3ccccc3c21.[I-]`: the minimum inhibitory concentration (MIC) against Cryptococcus neoformans [1] is over 20 µg/mL; against Candida albicans [2] (Candida albicans, ATCC 90028) it was 7.8 µg/mL; with Aspergillus fumigatus [3], over 20 µg/mL. The compound also returned a 50% inhibitory concentration (IC50) in the assay on Vero of over 23.8 µg/mL.

Take `C[n+]1c2ccccc2cc2sc3cc(Cl)ccc3c21.[I-]`: the outcome in the assay with Cryptococcus neoformans [4] was inactive. In addition, the half-inhibitory concentration (IC50) in the assay with Candida albicans [2] (Candida albicans, ATCC 90028) is 2.5 µg/mL; in the assay on Aspergillus fumigatus [3] it was 9.5 µg/mL; with Vero, over 10 µg/mL. The minimum inhibitory concentration (MIC) against Candida albicans [2] (Candida albicans, ATCC 90028) is over 20 µg/mL; with Aspergillus fumigatus [3] it was over 20 µg/mL.

In the case of `COc1ccc2sc3cc4ccccc4[n+](C)c3c2c1.[I-]`, the result in the assay on Cryptococcus neoformans [4] was inactive. For the same compound, the result with Candida albicans [5] was inactive. Further, in the assay on Aspergillus fumigatus [3], 8 µg/mL corresponded to half-maximal inhibition (IC50) and the minimum inhibitory concentration (MIC) turned out to be 20 µg/mL.

In the case of `[I-].c1ccc(Sc2cc3ccccc3[n+](CCCCCC3CCCCC3)c2)cc1`, the IC50 in the assay on Cryptococcus neoformans [1] was determined as 0.5 µg/mL; in the assay on Candida albicans [2] (Candida albicans, ATCC 90028), 2.7 µg/mL; with Pichia kudriavzevii it was 0.7 µg/mL; in the assay on Aspergillus fumigatus [3] it was 8.6 µg/mL; in the assay on Vero, 4.6 µg/mL. In addition, the MFC with Cryptococcus neoformans [1] was 2.5 µg/mL; in the assay with Pichia kudriavzevii, 2.5 µg/mL; against Aspergillus fumigatus [3] it was over 20 µg/mL. The MIC with Cryptococcus neoformans [1] was 1.3 µg/mL; in the assay with Candida albicans [2] (Candida albicans, ATCC 90028), 5 µg/mL; in the assay with Pichia kudriavzevii, 1.3 µg/mL; against Aspergillus fumigatus [3] it was 10 µg/mL.

Regarding `COc1cccc2c1sc1cc3ccccc3[n+](C)c12.[I-]`, the IC50 in the assay on Cryptococcus neoformans [1] is 10 µg/mL; in the assay with Candida albicans [2] (Candida albicans, ATCC 90028), 7 µg/mL; with Aspergillus fumigatus [3], 3 µg/mL; with Vero, over 10 µg/mL. Besides, the minimum inhibitory concentration (MIC) is over 20 µg/mL against Cryptococcus neoformans [1]; over 20 µg/mL with Candida albicans [2] (Candida albicans, ATCC 90028); 5 µg/mL with Aspergillus fumigatus [3].

For `COc1cccc2c1cc1sc3ccccc3c1[n+]2C.O=S(=O)([O-])C(F)(F)F`, the IC50 in the assay with Candida albicans [2] (Candida albicans, ATCC 90028) was 15 µg/mL; in the assay with Aspergillus fumigatus [3], 0.8 µg/mL; in the assay on Vero, over 4.7 µg/mL. Moreover, the minimum inhibitory concentration (MIC) is over 20 µg/mL in the assay on Candida albicans [2] (Candida albicans, ATCC 90028) and 1.3 µg/mL in the assay with Aspergillus fumigatus [3].

`C[n+]1c2ccccc2cc2[n-]c3ccccc3c21` [CRYPTOLEPINE]: the half-maximal inhibitory concentration (IC50) in the assay with Cryptococcus neoformans [1] came out at 12.5 µg/mL (≈ 53.8 µM); in the assay with Vero, 3.2 µg/mL (≈ 13.8 µM).

With `COc1ccc2c(c1)sc1cc3ccccc3[n+](C)c12.[I-]`, the outcome in the assay with Cryptococcus neoformans [4] was inactive. For the same compound, the IC50 in the assay with Candida albicans [2] (Candida albicans, ATCC 90028) turned out to be 6 µg/mL; with Aspergillus fumigatus [3], 1 µg/mL. Moreover, the minimal inhibitory concentration (MIC) in the assay with Candida albicans [2] (Candida albicans, ATCC 90028) came out at 20 µg/mL; with Aspergillus fumigatus [3], 2.5 µg/mL.

With `COc1cccc2cc3sc4ccccc4c3[n+](C)c12.O=S(=O)([O-])C(F)(F)F`, the 50% inhibitory concentration (IC50) worked out at 15 µg/mL in the assay with Cryptococcus neoformans [1]; 15 µg/mL with Candida albicans [2] (Candida albicans, ATCC 90028); 3 µg/mL with Aspergillus fumigatus [3]. Moreover, the MIC against Cryptococcus neoformans [1] was over 20 µg/mL; with Candida albicans [2] (Candida albicans, ATCC 90028) it was over 20 µg/mL; against Aspergillus fumigatus [3], 5 µg/mL.
